Laboratory results taken from patent publication US20150148320A1, “COSMETIC USE OF SALICYLIC ACID DERIVATIVES” (Avon Products, Inc., priority 2013, published 2015).

How the values were obtained:
[1] = target: T1, recombinant human (rh) KLK5 (Homo sapiens, UniProt Q9Y337); test: Enzymatic activity of Kallikrein 5 (KLK5), fluorogenic peptide substrate Boc-V-P-R-AMC; format: biochemical
T1 construct: purchased R&D Systems 1108-SE
T1 sequence (Q9Y337 23-293): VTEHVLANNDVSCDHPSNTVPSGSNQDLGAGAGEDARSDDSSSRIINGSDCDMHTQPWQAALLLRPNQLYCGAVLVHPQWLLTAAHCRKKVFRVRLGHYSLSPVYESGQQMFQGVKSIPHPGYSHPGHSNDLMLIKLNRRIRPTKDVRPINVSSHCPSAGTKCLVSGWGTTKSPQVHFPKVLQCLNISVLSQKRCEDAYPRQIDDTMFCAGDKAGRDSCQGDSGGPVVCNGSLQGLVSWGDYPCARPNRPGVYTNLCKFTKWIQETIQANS
Description: Compound 1 was assayed for enzymatic activity of Kallikrein 5 (KLK5) as follows, and its activity compared to that of salicylic acid. The KLK5 activity of compound 1 was calculated as a percentage of KLK5 activity relative to salicylic acid. The KLK5 activity of compound 1 was about 165% relative to the KLK5 activity of salicylic acid.
In the stratum corneum, skin's outermost layer, cell-to-cell cohesion depends primarily on proteins known as the corneodesmosomes. During skin remodeling and renewal dead cells are shed from the skin surface by the action of native proteases that break down the corneodesmosomes. […] Hypothetically, up-regulation of the activities of these proteases using different active candidates could be utilized to increase the rate of shedding of dead skin, thus providing a natural means for skin exfoliation. To this end, the enzymatic activity of a member of the KLK family, recombinant human (rh) KLK5, was monitored following pre-incubation with actives and measuring the rate of peptide bond cleavage of a synthetic substrate.
Enzymatic activity of KLK5 was measured by incubating recombinant human (rh) KLK5 protease (R&D Systems, Cat No. 1108-SE) with a specific fluorogenic peptide substrate Boc-V-P-R-AMC (R& D Systems, Cat No. ES011). The substrate is conjugated to a quenched fluorescent group. […] Increase in fluorescence reading indicates an increase in rhKLK5 activity. […] After 60 seconds of incubation, fluorescence was measured at 340 nm (Excitation wavelength) and 485 nm (Emission wavelength) every 1 minute for 7 minutes. Rate (kinetics) of enzyme activity was calculated as follows: Rate of enzyme activity=Change of fluorescent reading (after background correction) Change of reaction time (min) Percent change of activity due to a test compound was calculated by comparing rate of enzyme activity in the presence of the test compound to that of a control without the test compound and statistical significance was calculated using a t-test. […]

[2] = Skin PAMPA parallel artificial membrane penetration assay; format: in vitro ADME; conditions: 50 μM, donor pH 4.25, acceptor pH 7.4, two hours incubation
Description: Several salicylic acid derivatives were assessed for their ability to penetrate skin. Each of the compounds was formulated in an aqueous buffer, with a final pH of 4.25 at a concentration of 50 μM. The skin permeability of the compounds was measured using a high throughput transdermal permeability model, the parallel artificial membrane penetration assay (Skin PAMPA™), which uses a skin mimetic artificial membrane that simulates the barrier properties of the strateum corneum.
Briefly, the Skin PAMPA™ assay is a sandwich assay that utilizes two 96-well plate assemblies, one of which acts as the acceptor chambers (comprising a buffer), and one of which acts as the donor chambers (comprising a buffer and the compound to be tested). […] After an incubation period, the donor and acceptor chambers are analyzed for the amount of compound present.
In the current experiments, the acceptor chamber included an acceptor solution made from Prisma™ HT buffer solution (Pion, Inc.) that was adjusted to a pH of 7.4±0.05 using 1.0 M NaOH, and the donor chamber included a donor solution made from Prisma™ HT buffer solution (Pion, Inc.) that was adjusted to a pH of 4.25±0.05 using 1.0 M NaOH. […] Effective permeability was then calculated by the same method as Sinko et al., Eur. J. Pharm. […]

Structure (SMILES): CCOC(=O)c1cc2c(c(C(=O)OCC)c1O)CCCC2 [Compound 1]
- stimulation of KLK5 (in words) ([1]; rhKLK5): very potent stimulator of KLK5
- KLK5 activity as a percentage relative to the KLK5 activity of salicylic acid ([1]; rhKLK5, rate of enzyme activity relative to salicylic acid): about 165%
- KLK5 activity as compared to salicylic acid (in words) ([1]; rhKLK5, FIG. 1 asterisk): superior KLK5 activity
- skin permeability as compared to salicylic acid (in words) [2]: higher permeability
